Measurements reported in patent US20220387393A1, “METHODS FOR THE TREATMENT OF DYSMYELINATING/DEMYELINATING DISEASES” (Board of Regents, The University of Texas System, priority 2019, published 2022).

What was measured:
[1] = tested on: corpus callosum (CC) myelin of mouse brains; details: 6 months after a clinically relevant dose for 1 week; cited from earlier work
[2] = tested on: corpus callosum (CC) myelin of mouse brains; assay type: in vivo; details: for delayed-onset demyelination and myelin lipid reduction in the CC: 6 months, but not 4 months, after chemotherapy cessation
From the text: (§1) FIGS. 4A-4C. […] (FIG. 4A) Quantitative FluoroMyelin staining of the corpus callosum (CC) in 4-month and 6-month mouse brains treated with 5-FU, saline and/or KD3010. (FIG. 4B) Quantitative immunofluorescent staining of oligodendrocyte lineage marker Olig2 in the CC of 6-month mouse brains treated with 5-FU or saline.

[3] = tested on: demyelination induced by 5-FU; assay: 5-FU (chemotherapy)-induced demyelination in mice, treatment with agonist; assay type: in vivo; details: FluoroMyelin staining of corpus callosum, mouse brains treated with 5-FU
From the text: as §1

[4] = Dickey et al., 2016; cited from earlier work
Qk-iCKO mice = assay: Qki depletion-induced demyelination in Qk-iCKO mice, daily oral administration; assay type: in vivo; details: for Qk-iCKO mice that lived for more than 100 days: 3 of 13 treated Qk-iCKO mice; for maximum survival duration increased / clinical scores / onset of neurological deficits / prolonged median survival times / body weights: Qk-iCKO mice; for maximum survival duration increased: compared to controls; for clinical scores / onset of neurological deficits / prolonged median survival times / body weights: oral administration, compared to vehicle; for body weights: 4 weeks after tamoxifen injection; for higher myelin lipid levels (FluoroMyelin) than vehicle-treated Qk-iCKO mice: corpus callosum; for higher myelin lipid levels (FluoroMyelin) than vehicle-treated Qk-iCKO mice / myelin sheaths (g-ratio) / more myelinated axons than vehicle-treated Qk-iCKO mice: after 5 weeks of treatment; for myelin sheaths (g-ratio) / more myelinated axons than vehicle-treated Qk-iCKO mice: optic nerves; for myelin sheaths (g-ratio): versus vehicle; for more myelinated axons than vehicle-treated Qk-iCKO mice: electron micrographs
From the text: FIGS. 2A-2J. […] In FIG. 2A, the four groups within each week represent, from left to right, Ctrl (Veh), iCKO (Veh), Ctrl (KD3010), and iCKO (KD3010). In FIG. 2D, the four groups within each week represent, from left to right, Ctrl (Veh), iCKO (Veh), Ctrl (Bex), and iCKO (Bex). In FIGS. 2B and 2E, the two lines that reach the X-axis represent the iCKO populations. (FIGS. 2C and 2F) Body weights of Qk-iCKO mice and controls receiving daily oral administration of KD3010, Bex, or Veh for 4 weeks after tamoxifen injection. (FIGS. 2G and 2H) Representative electron micrographs and quantification of the percentage of myelinated axons and g-ratio of the optic nerves of the experimental mice after 5 weeks of treatment. Scale bars, 500 nm. (FIGS. 2I and 2J) Representative images and quantification of FluoroMyelin level in the corpus callosum tissues of experimental mice after 5 weeks of treatment. Scale bars, 50 μm. Data are mean±s.d.; one-way ANOVA with Fisher's LSD correction. *P<0.05; **P<0.01; ***P<0.001; ****P<0.0001. ns, not significant.
Therefore, whether PPARβ-RXRα agonists could alleviate lipid defect-induced demyelination and its related symptoms was tested.

SMILES | delayed-onset demyelination and myelin lipid reduction in the CC [2] | Qk-iCKO mice that lived for more than 100 days (Qk-iCKO mice) [%] | maximum survival duration increased (Qk-iCKO mice) [fold] | clinical scores (Qk-iCKO mice) | onset of neurological deficits (Qk-iCKO mice) | prolonged median survival times (Qk-iCKO mice) [fold] | body weights (Qk-iCKO mice) | higher myelin lipid levels (FluoroMyelin) than vehicle-treated Qk-iCKO mice (Qk-iCKO mice) [%] | myelin sheaths (g-ratio) (Qk-iCKO mice) | more myelinated axons than vehicle-treated Qk-iCKO mice (Qk-iCKO mice) [%] | further results
O=c1[nH]cc(F)c(=O)[nH]1 [5-FU, 5-fluorouracil] | exhibited delayed-onset demyelination and myelin lipid reduction |  |  |  |  |  |  |  |  |  | delayed-onset demyelination (Han et al., 2008) [1]: developed delayed-onset demyelination; changes in myelin protein levels and oligodendrocyte numbers ([2]; CC of 6-month mouse brains): minimal changes; Qki in the oligodendrocytes in the lesions ([2]; Olig2/Qki double staining, CC of 6-month mouse brains): greatly reduced
C[C@@H]1CN(c2ccc(OC(F)(F)F)cc2)C[C@H](C)N1S(=O)(=O)c1cccc2c1C[C@@H](C(=O)O)C2 [KD3010, (S)-4-[cis-2,6-dimethyl-4-(4-trifluoromethoxy-phenyl)piperazine-1-sulfonyl]-indan-2-carboxylic acid] |  | 23.1 | 3.72 | lowered | significantly delayed | 2.34 | increased | 119.4 | thicker | 115.3 | demyelination induced by 5-FU [3]: greatly alleviated; CNS permeability [4]: CNS-permeable
C=C(c1ccc(C(=O)O)cc1)c1cc2c(cc1C)C(C)(C)CCC2(C)C [bexarotene] |  | 23.1 | 4.03 | lowered | significantly delayed | 1.41 | increased | 89.5 | thicker | 73.7 | 
COc1cccc2c1C(=O)c1c(O)c3c(c(O)c1C2=O)C[C@@](O)(C(=O)CO)C[C@@H]3O[C@H]1C[C@H](N)[C@H](O)[C@H](C)O1 [doxorubicin] | exhibited delayed-onset demyelination and myelin lipid reduction |  |  |  |  |  |  |  |  |  | 
CN(Cc1cnc2nc(N)nc(N)c2n1)c1ccc(C(=O)N[C@@H](CCC(=O)O)C(=O)O)cc1 [methotrexate] | exhibited delayed-onset demyelination and myelin lipid reduction |  |  |  |  |  |  |  |  |  | 
